Test results from US9814736B2, “Use of 2-methylene-19-nor-(20S)-1α,25-dihydroxyvitamin D3 and calcimimetics to treat secondary hyperparathyroidism” (Wisconsin Alumni Research Foundation, priority 2014, dated 2017).
“Also recorded” adds a separate entry of the source. Read-outs that look alike come from different tables or passages of the source.

Legend:
[1] = Phase 2B double-blind, randomized, placebo-controlled study in hemodialysis patients: safety; type: in vivo, human
Experimental: FIG. 9. Study enrollees exceeding safety threshold values for iPTH, Ca, and P.
FIG. 10. Number of adverse events (AEs) and serious adverse events (SAEs) for study enrollees.
(§1) Subjects were administered DP001 (2MD) or placebo accordingly the study schema of FIG. 3. Subject disposition is illustrated in FIG. 4. As indicated, 129 subject were screened. Of these, 62 were enrolled and 67 were screen failures. Of the 62 enrollees, 28 were administered a placebo and 34 were administered DP001 (440 ng, 3×/wk for up to 12 weeks). Of the 28 enrollees who were administered the placebo, 22 completed the 12 week study and 6 discontinued for reasons illustrated. Of the 34 enrollees who were administered DP001, 31 completed the 12 week study and 3 discontinued for reasons illustrated.
The remaining 8 subjects were only dose-adjusted downward, indicating a starting dose lower than 440 ng would have been sufficient to suppress PTH. […] Only one patient receiving DP001 (2MD) had two consecutive corrected serum calcium values>10.5 mg/dL.

[2] = test system: PTH; experiment: Phase 2B double-blind, randomized, placebo-controlled study in hemodialysis patients: efficacy (serum iPTH); type: in vivo, human
Experimental: FIG. 3. Study schema for study participants. Participants discontinued use of the active vitamin D analogue (AVD) and cinacalcet (if applicable) prior to a washout period and subsequent administration of placebo or DP001 (440 ng, 3×/wk, for up to 12 weeks).
FIG. 6. Percentage of subjects achieving primary endpoint of two consecutive ≧30% decrease from his/her averaged baseline iPHT level during the 12-week treatment period. Pre-dialysis serum iPTH levels were measured using the Access Intact iPTH Assay from Beckman Coulter (p<0.0001, Fisher's exact test).
FIG. 7. Secondary efficacy endpoint as measured as the mean percentage change in serum iPTH from the averaged baseline value to the average of the last 2 on-treatment values. Data are presented as mean±SEM. p<0.0001, One-way ANOVA.
as §1
The Primary Efficacy Endpoint was the proportion of subjects who achieved two consecutive ≧30% decrease from his/her Averaged Baseline iPTH level during the 12-week treatment period. (See FIG. 6). Pre-dialysis serum iPTH levels were measured using the Access Intact iPTH Assay from Beckman Coulter (p<0.0001, Fisher's exact test).
The secondary efficacy endpoint was the mean percentage change in serum iPTH from the Averaged Baseline value to the average of the last 2 on-treatment values. Data are presented in FIG. 7 as mean±SEM. p<0.0001, One-way ANOVA.

[3] = test system: PTH; experiment: Phase 2A open-label dose-ranging study of DP001 in hemodialysis patients; type: in vivo, human; conditions: dialysis patients, orally 3 times weekly for 4 weeks
Experimental: FIG. 1. Change in plasma iPTH (%) versus concentration of DP001 (2MD). Chronic kidney disease—stage 5 patients were given DP001 at the indicated dose orally 3 times weekly for 4 weeks. Data are presented as mean±SEM. Plasma iPTH levels were measured using the Immulite Intact iPTH Assay from Siemens Healthcare Diagnostics.
FIG. 2. Safety parameter versus concentration of DP001 (2MD) for patients of FIG. 1. Data are presented as mean (standard deviation (SD)).
A Phase 2A, open-label, dose-ranging study of DP001 in hemodialysis patients was conducted to determine a starting dose of DP001 for the Phase 2B, randomized, placebo-controlled study described in this Example. […] (See FIGS. 1 and 2). Based on the results in FIGS. 1 and 2, an efficacious and safe starting dose of 440 ng was chosen. Data are presented as mean±SEM. Plasma iPTH levels were measured using the Immulite Intact iPTH Assay from Siemens Healthcare Diagnostics.

[4] = test system: cultured bovine parathyroid cells; conditions: cited from earlier work
[5] = test system: serum PTH; conditions: uremic rats; cited from earlier work
[6] = test system: serum PTH; conditions: uremic dogs; cited from earlier work
[7] = test system: MRL/lpr mouse model of systemic lupus erythematosus; conditions: cited from earlier work

C=C1[C@H](O)CC(=C/C=C2\CCC[C@@]3(C)C2CCC3[C@@H](C)CCCC(C)(C)O)C[C@H]1O (stereo partly drawn) [DP001, 2-methylene-19-nor-(20S)-1α,25-dihydroxyvitamin D3]
serum calcium values ([1]; 12-week treatment): remained in the normal range
patients with two consecutive corrected serum calcium values >10.5 mg/dL ([1]; 34 enrollees on DP001): one
subjects that reached the safety threshold for PTH ([1]; 34 enrollees on DP001, 440 ng 3x/wk up to 12 weeks): 14 subjects
adverse event reporting versus placebo ([1]; between treatment groups): no significant differences in adverse event reporting between treatment groups
patients surpassing corrected-serum calcium and phosphorus product safety threshold ([1]; both had high serum phosphorus at baseline): two
serious adverse events (SAEs) related to drug ([1]; judged by investigators): No serious adverse events (SAEs) were judged by the investigators to be related to DP001
subjects achieving primary endpoint (two consecutive ≧30% decrease from averaged baseline iPTH) ([2]; CKD-5D, 3x weekly oral, starting dose 440 ng, 12-week treatment, p<0.0001): 78 % of subjects
reduction of serum iPTH (secondary endpoint: mean percentage change from averaged baseline) ([2]; CKD-5D, 3x weekly oral, starting dose 440 ng, by 12 weeks, p<0.0001): 46%
PTH lowering in subjects previously treated with AVD and cinacalcet (calcimimetic) ([2]; DP001 alone, CKD-5D patients previously on cinacalcet): effectively reduced PTH levels; also recorded: successfully treats SHPT in patients previously taking a calcimimetic
change in serum calcium [3]: without changing serum calcium
suppression of PTH (plasma iPTH) [3]: suppresses PTH in dialysis patients in a dose-dependent fashion

C=C1/C(=C\C=C2/CCC[C@]3(C)C([C@H](C)CC#CC(C)(C)O)=CC[C@@H]23)C[C@@H](O)C[C@@H]1O [1,25-(OH)2-16-ene-23-yne-D3]
suppression of PTH secretion relative to calcitriol [4]: nearly as effective as calcitriol

C=C1C(=CC=C2CCCC3(C)C2CCC3C(C)C=CCCCCC(C)(C)O)CC(O)CC1O (stereo not shown) [1,25-(OH)2-24-trihomo-22-ene-D3]
suppression of PTH secretion relative to calcitriol [4]: nearly as effective as calcitriol

C=C1C(=CC=C2CCCC3(C)C2CCC3C(C)CCCCCC(C)(C)O)CC(O)CC1O (stereo not shown) [1,25-(OH)2-24-dihomo-D3]
suppression of PTH secretion relative to calcitriol [4]: nearly as effective as calcitriol

C=C1/C(=C\C=C2/CCC[C@]3(C)[C@@H]([C@H](C)OCCC(C)(C)O)CC[C@@H]23)C[C@@H](O)C[C@@H]1O [22-oxacalcitriol]
suppression of serum PTH [5]: suppress serum PTH
suppression of PTH secretion relative to calcitriol [4]: nearly as effective as calcitriol
suppression of serum PTH [6]: suppress serum PTH

C=C1/C(=C\C=C2/CCC[C@]3(C)[C@@H]([C@H](C)CCCC(C)(C)O)CC[C@@H]23)C[C@@H](O)C[C@@H]1O [calcitriol, 1α,25-(OH)2D3]
hypercalcemia ([7]; accompanying calcitriol treatment): severe hypercalcemia always accompanied this treatment
proteinuria ([7]; calcitriol administered through the diet): completely prevents proteinuria
